# Experiments:
# p38 MAP kinase = p38 MAP kinase (Homo sapiens, UniProt Q16539); assay: P38 MAP kinase binding assay (fluorescence competition with SKF 86002); settings: time-dependent if the IC50 values decrease with the reaction time (more than two-fold in four hours)
# Description: The reaction was initiated by addition of the enzyme. […] By comparison of rfu (relative fluorescence unit) values with that of a control (in the absence of an inhibitor), the percentage of inhibition at each concentration of the inhibitor was calculated. IC50 value for the inhibitor was calculated from the % inhibition values obtained at a range of concentrations of the inhibitor using Prism. When time-dependent inhibition was assessed, the plate was read at multiple reaction times such as 0.5, 1, 2, 3, 4 and 6 hours. The IC50 values were calculated at the each time point. An inhibition was assigned as time-dependent if the IC50 values decrease with the reaction time (more than two-fold in four hours).
# [1] = tested on: TNF-alpha release from human peripheral blood mononuclear leukocytes; assay: Human peripheral blood mononuclear leukocyte cell assay (LPS-induced TNF-alpha release, ELISA); type: cell-based; settings: 25 ng/mL LPS, 16 hours, read-out: IC50, uM (inhibition of TNF-alpha release)
# Description: The quantity of LPS-induced tumor necrosis factor-alpha (TNF-alpha) cytokine release is measured by a commercially available Enzyme-Linked Immunosorbent Assay (ELISA) kit. Test compounds are evaluated for their ability to inhibit TNF-alpha release.
# [2] = target: phosphorylated p-38-alpha kinase (Homo sapiens, UniProt Q16539); assay: P-38 alpha kinase assay P1; type: biochemical; settings: Method P1; for IC50: 2 h pre-incubation before ATP; for Results, % @ concentration μM: @ 1.0 μM
# phosphorylated p-38-alpha kinase, sequence (Q16539 1-360 isoform Q16539-2): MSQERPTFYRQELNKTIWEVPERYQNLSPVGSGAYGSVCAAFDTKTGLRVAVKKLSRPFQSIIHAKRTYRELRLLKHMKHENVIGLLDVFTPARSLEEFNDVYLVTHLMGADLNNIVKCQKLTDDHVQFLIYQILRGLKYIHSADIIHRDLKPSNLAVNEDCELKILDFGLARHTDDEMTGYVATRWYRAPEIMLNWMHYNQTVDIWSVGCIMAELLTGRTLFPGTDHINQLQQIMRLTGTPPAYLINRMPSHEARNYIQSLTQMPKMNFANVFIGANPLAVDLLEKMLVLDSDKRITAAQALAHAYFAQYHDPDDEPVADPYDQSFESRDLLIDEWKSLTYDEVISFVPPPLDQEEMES
# [3] = target: T1, phospho p-38 alpha kinase (Homo sapiens, UniProt Q16539); assay: P-38 alpha kinase assay (spectrophotometric, pyruvate kinase/lactate dehydrogenase coupled); type: biochemical; settings: Table 5; for IC50: assay not named, read-out: uM
# T1 construct: purchased Panvera
# T1 sequence (Q16539 whole entry): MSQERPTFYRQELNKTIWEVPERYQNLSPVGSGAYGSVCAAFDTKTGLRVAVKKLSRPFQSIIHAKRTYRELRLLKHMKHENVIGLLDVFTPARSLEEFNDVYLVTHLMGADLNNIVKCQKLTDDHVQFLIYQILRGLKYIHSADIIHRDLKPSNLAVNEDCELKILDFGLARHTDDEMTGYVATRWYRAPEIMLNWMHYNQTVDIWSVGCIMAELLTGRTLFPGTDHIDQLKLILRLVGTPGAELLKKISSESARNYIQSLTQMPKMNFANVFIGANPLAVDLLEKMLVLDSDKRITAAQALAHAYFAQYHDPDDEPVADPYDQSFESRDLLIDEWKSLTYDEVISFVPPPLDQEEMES
# B-Raf(V599E) kinase [4] = target: T2, B-Raf(V599E) kinase (Homo sapiens, UniProt P15056, V600E); assay: biochemical; settings: for IC50: Method B2, construct 2; for inhibition at 10 µM / inhibition at 1 µM: read-out: Results, % @ concentration μM
# Description: (§1) The test compounds were incubated with the reaction mixture at 30° C. for 2 h. […] The reaction rate was calculated using the 1.5 h to 2.5 h time frame. […] IC50 values were calculated from a series of percent inhibition values determined at a range of inhibitor concentrations using software routines as implemented in the GraphPad Prism software package.
# Same as assay B1 except that (1) construct 2 was employed at a nominal concentration of 2 nM (2) the reaction was pre-incubated at 30° C. for 1 h prior to initiation with ATP (3) a reading time frame of 0.5 h to 1.5 h.
# Target sequence in this assay (P15056 433-726 V600E): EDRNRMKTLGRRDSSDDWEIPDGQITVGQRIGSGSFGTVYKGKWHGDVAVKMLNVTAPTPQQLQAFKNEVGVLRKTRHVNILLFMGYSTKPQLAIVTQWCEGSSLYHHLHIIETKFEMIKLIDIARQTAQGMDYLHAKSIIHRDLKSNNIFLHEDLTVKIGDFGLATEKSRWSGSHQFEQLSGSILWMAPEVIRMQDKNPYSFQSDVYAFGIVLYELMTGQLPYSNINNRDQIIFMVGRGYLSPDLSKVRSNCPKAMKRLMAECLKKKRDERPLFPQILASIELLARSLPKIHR
# KDR kinase [5] = target: T3, KDR kinase (Homo sapiens, UniProt P35968, DEL940-989/E990V); assay: KDR kinase assay K1; type: biochemical; settings: read-out: Results, % @ concentration μM, Method K1; @ 10 μM
# T3 sequence (P35968 with tags, fused parts or gaps DEL940-989/E990V): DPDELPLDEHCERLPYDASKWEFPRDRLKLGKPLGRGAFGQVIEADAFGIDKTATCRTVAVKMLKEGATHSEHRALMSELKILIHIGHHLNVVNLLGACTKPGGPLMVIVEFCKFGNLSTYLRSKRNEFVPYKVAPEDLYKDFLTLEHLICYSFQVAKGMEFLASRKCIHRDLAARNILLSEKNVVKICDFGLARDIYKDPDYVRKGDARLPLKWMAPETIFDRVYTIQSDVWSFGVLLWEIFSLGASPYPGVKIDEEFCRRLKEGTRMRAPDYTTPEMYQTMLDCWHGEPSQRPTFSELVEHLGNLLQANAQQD
# Description: (§2) IC50 values were calculated from a series of percent inhibition values determined at a range of inhibitor concentrations using software routines as implemented in the GraphPad Prism software package.
# Abl kinase [6] = target: T4, Abl kinase (Homo sapiens, UniProt P00519); assay: Abl kinase assay A1; type: biochemical
# T4 sequence (P00519 229-512): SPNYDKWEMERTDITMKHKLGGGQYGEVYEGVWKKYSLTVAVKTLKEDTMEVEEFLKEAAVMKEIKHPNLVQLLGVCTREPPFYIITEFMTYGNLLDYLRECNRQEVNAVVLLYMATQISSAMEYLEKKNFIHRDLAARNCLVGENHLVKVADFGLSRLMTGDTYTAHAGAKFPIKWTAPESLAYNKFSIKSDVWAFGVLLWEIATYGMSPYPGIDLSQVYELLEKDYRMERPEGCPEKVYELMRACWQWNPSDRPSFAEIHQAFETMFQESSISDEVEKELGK
# Description: as §2
# KDR kinase [7] = target: T3, KDR kinase; assay: KDR kinase assay K2; settings: for inhibition at 1 µM: read-out: Results, % @ concentration μM
# B-Raf(V599E) kinase [8] = target: T2, B-Raf(V599E) kinase; assay: B-Raf(V599E) kinase assay B1; type: biochemical; settings: Method B1; construct 1
# Description: as §1
# Target sequence in this assay (P15056 with tags, fused parts or gaps V600E): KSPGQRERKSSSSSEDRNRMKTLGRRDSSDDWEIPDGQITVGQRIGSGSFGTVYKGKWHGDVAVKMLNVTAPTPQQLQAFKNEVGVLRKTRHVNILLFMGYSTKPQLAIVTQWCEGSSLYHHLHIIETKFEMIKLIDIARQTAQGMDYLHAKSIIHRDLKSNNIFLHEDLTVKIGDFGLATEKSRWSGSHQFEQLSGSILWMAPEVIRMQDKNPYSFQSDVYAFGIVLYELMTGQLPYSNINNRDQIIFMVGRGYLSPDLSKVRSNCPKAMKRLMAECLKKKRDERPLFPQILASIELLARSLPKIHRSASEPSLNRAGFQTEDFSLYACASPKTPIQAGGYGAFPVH
# Abl kinase [9] = target: T4, Abl kinase; assay: Abl kinase assay A2; type: biochemical; settings: Method A2; 2 h pre-incubation, 0.5 mM ATP
# Description: as §2
# p38 MAP kinase, sequence (Q16539 whole entry): as the sequence (Q16539 whole entry) above
compound,measurement,setting,value
CC1(C(=O)O)CC2(C)CC(C)(C1)C(=O)N(Cc1cccc(-n3nc(C(C)(C)C)cc3NC(=O)Nc3cccc4ccccc34)c1)C2=O (stereo not drawn) [Example 11],Time-dependent,p38 MAP kinase,No
CC1(C(=O)O)CC2(C)CC(C)(C1)C(=O)N(Cc1cccc(-n3nc(C(C)(C)C)cc3NC(=O)Nc3ccc(Cl)cc3)c1)C2=O (stereo not drawn) [Example 12],Time-dependent,p38 MAP kinase,No
"CC(C)(C)c1cc(NC(=O)Nc2cccc3ccccc23)n(-c2cccc(CC(=O)N3CCOCC3)c2)n1 [Example 21, 1-{3-t-butyl-1-[3-(2-morpholino-2-oxoethyl)phenyl]-1H-pyrazol-5-yl}-3-(naphthalene-1-yl)urea]",Time-dependent,p38 MAP kinase,Yes
"CC(C)(C)c1cc(NC(=O)Nc2cccc3ccccc23)n(-c2ccc(CN)cc2)n1 [Example 45, 1-{3-t-butyl-1-[4-(aminomethyl)phenyl]-1H-pyrazol-5-yl}-3-(naphthalen-1-yl)urea]",Time-dependent,p38 MAP kinase,No
"CCOC(=O)Cc1cccc(-n2nc(C(C)(C)C)cc2NC(=O)Nc2ccc3c(c2)OCO3)c1 [Example 296, ethyl 2-(3-{5-[3-(benzo[d][1,3]dioxol-5-yl)ureido]-3-t-butyl-1H-pyrazol-1-yl}phenyl)-acetate]",IC50,[1],3.49 µM
"CN(C)CCc1cccc(-n2nc(C(C)(C)C)cc2NC(=O)Nc2ccc3c(c2)OCO3)c1 [Example 300, 1-(benzo[d][1,3]dioxol-5-yl)-3-{3-t-butyl 1-(3-[2-(dimethylamino)ethyl]phenyl}-1H-pyrazol-5-yl)urea]",IC50,[1],4.78 µM
"O=C(O)Cc1cccc(-n2nc(-c3ccsc3)cc2NC(=O)Nc2cccc(Cl)c2Cl)c1 [Example 436, 2-(3-(5-(3-(2,3-dichlorophenyl)ureido)-3-(thiophen-3-yl)-1H-pyrazol-1-yl)phenyl)acetic acid]",IC50,[2],0.007 µM
same,"% @ concentration, uM",[3]; @ 0.1 uM,16%
same,"% @ concentration, uM",[3]; @ 1 uM,41%
same,IC50,B-Raf(V599E) kinase [4],3.7 µM
"O=C(Cc1cccc(-n2nc(-c3ccccc3F)cc2NC(=O)Nc2cccc(Cl)c2Cl)c1)NCC(O)CO (stereo not drawn) [Example 459, 1-(2,3-dichlorophenyl)-3-(1-(3-(2-(2,3-dihydroxypropylamino)-2-oxoethyl)phenyl)-3-(2-fluorophenyl)-1H-pyrazol-5-yl)urea]",inhibition at 10 µM,KDR kinase [5],33%
same,IC50,[2],0.005 µM
same,IC50,[3],0.02 µM
same,inhibition at 10 µM,B-Raf(V599E) kinase [4],5%
"O=C(Cc1ccc(-n2nc(-c3ccccc3F)cc2NC(=O)Nc2cccc(Cl)c2Cl)cc1)NCC(O)CO (stereo not drawn) [Example 471, 1-(2,3-dichlorophenyl)-3-(1-(4-(2-(2,3-dihydroxypropylamino)-2-oxoethyl)phenyl)-3-(2-fluorophenyl)-1H-pyrazol-5-yl)urea]",inhibition at 1 µM,"Abl kinase [6]; read-out: Results, % @ concentration μM, Method A1, @ 1 μM",14%
same,IC50,[2],0.016 µM
same,inhibition at 10 µM,B-Raf(V599E) kinase [4],39%
"O=C(Cc1ccc(-n2nc(-c3ccccc3F)cc2NC(=O)Nc2cccc(Cl)c2Cl)cc1)NC(CO)CO [Example 473, 1-(2,3-dichlorophenyl)-3-(1-(4-(2-(1,3-dihydroxypropan-2-ylamino)-2-oxoethyl)phenyl)-3-(2-fluorophenyl)-1H-pyrazol-5-yl)urea]",IC50,[2],0.03 µM
same,IC50,[3],0.004 µM
same,inhibition at 10 µM,B-Raf(V599E) kinase [4],4%
"O=C(Cc1cccc(-n2nc(C3CCCC3)cc2NC(=O)Nc2cccc(Cl)c2Cl)c1)NCC(O)CO (stereo not drawn) [Example 487, 1-(3-cyclopentyl-1-(3-(2-(2,3-dihydroxypropylamino)-2-oxoethyl)phenyl)-1H-pyrazol-5-yl)-3-(2,3-dichlorophenyl)urea]",inhibition at 1 µM,KDR kinase [7],20%
same,IC50,[2],0.006 µM
same,IC50,[3],0.038 µM
"O=C(Cc1cccc(-n2nc(C3CCCC3)cc2NC(=O)Nc2cccc(Cl)c2Cl)c1)NCCO [Example 488, 1-(3-cyclopentyl-1-(3-(2-(2-hydroxyethylamino)-2-oxoethyl)phenyl)-1H-pyrazol-5-yl)-3-(2,3-dichlorophenyl)urea]",inhibition at 1 µM,KDR kinase [7],41%
same,IC50,[2],0.007 µM
same,IC50,[3],0.54 µM
same,inhibition at 1 µM,B-Raf(V599E) kinase [4],21%
"CC(Cc1cccc(-n2nc(-c3ccccc3F)cc2NC(=O)Nc2cccc(Cl)c2Cl)c1)C(N)=O (stereo not drawn) [Example 489, 1-(1-(3-(3-amino-2-methyl-3-oxopropyl)phenyl)-3-(2-fluorophenyl)-1H-pyrazol-5-yl)-3-(2,3-dichlorophenyl)urea]",inhibition at 1 µM,KDR kinase [7],25%
same,IC50,[3],0.52 µM
"CC(C)(C)c1cc(NC(=O)Nc2cccc(Oc3cccnc3)c2)n(-c2cccc(CC(N)=O)c2)n1 [Example 500, 1-(1-(3-(2-amino-2-oxoethyl)phenyl)-3-tert-butyl-1H-pyrazol-5-yl)-3-(3-(pyridin-3-yloxy)phenyl)urea]",IC50,B-Raf(V599E) kinase [8],0.01 µM
same,IC50,Abl kinase [9],0.021 µM
same,IC50,KDR kinase [7],9 nM
same,IC50,[2],0.017 µM
"NC(=O)Cc1cccc(-n2nc(-c3cccs3)cc2NC(=O)Nc2cccc(Oc3cccnc3)c2)c1 [Example 502, 1-(1-(3-(2-amino-2-oxoethyl)phenyl)-3-(thiophen-2-yl)-1H-pyrazol-5-yl)-3-(3-(pyridin-3-yloxy)phenyl)urea]",IC50,"Abl kinase [6]; Method A1, read-out: Results, μM (IC50)",3.1 µM
same,IC50,KDR kinase [7],1300 nM
"NC(=O)Cc1cccc(-n2nc(C(F)(F)F)cc2NC(=O)Nc2cccc(Oc3cccnc3)c2)c1 [Example 503, 1-(1-(3-(2-amino-2-oxoethyl)phenyl)-3-(trifluoromethyl)-1H-pyrazol-5-yl)-3-(3-(pyridin-3-yloxy)phenyl)urea]",IC50,B-Raf(V599E) kinase [8],0.13 µM
same,IC50,Abl kinase [9],0.29 µM
same,IC50,KDR kinase [7],190 nM
"C=C1NS(=O)(=O)N(Cc2cccc(-n3nc(C(C)(C)C)cc3NC(=O)Nc3cccc(Cl)c3Cl)c2)C1=O [Example 511, 1-{5-t-butyl-2-[3-(4-methylene-1,1,3-trioxo-[1,2,5]thiadiazolidin-2-ylmethyl)-phenyl]-2H-pyrazol-3-yl}-3-(2,3-dichlorophenyl)-urea]",IC50,B-Raf(V599E) kinase [8],1.7 µM
same,IC50,Abl kinase [9],0.25 µM
same,IC50,KDR kinase [7],14 nM
same,IC50,[3],0.024 µM
"NC(=O)Cc1cccc(-n2nc(C3CCCC3)cc2NC(=O)Nc2ccc(-c3cccc4c3CNC4=O)cc2)c1 [Example 512, 1-(1-(3-(2-amino-2-oxoethyl)phenyl)-3-cyclopentyl-1H-pyrazol-5-yl)-3-(4-(1-oxoisoindolin-4-yl)phenyl)urea]",IC50,Abl kinase [9],0.11 µM
same,IC50,KDR kinase [7],29 nM
same,"Results, % @ concentration μM",[2],82% @1.0
same,IC50,[3],0.032 µM
"Cn1c(=O)c(-c2cccc(NC(=O)Nc3cc(C4CCCC4)nn3-c3cccc(CC(N)=O)c3)c2)cc2cncnc21 [Example 514, 1-(1-(3-(2-amino-2-oxoethyl)phenyl)-3-cyclopentyl-1H-pyrazol-5-yl)-3-(3-(8-methyl-7-oxo-7,8-dihydropyrido[2,3-d]pyrimidin-6-yl)phenyl)urea]",IC50,Abl kinase [9],0.077 µM
same,IC50,KDR kinase [7],33 nM
same,IC50,[2],0.011 µM
same,IC50,[3],0.57 µM
"Cc1ccc(NC(=O)Nc2cc(C(C)(C)C)nn2-c2cccc(CC(N)=O)c2)cc1Nc1ncccn1 [Example 515, 1-(1-(3-(2-amino-2-oxoethyl)phenyl)-3-tert-butyl-1H-pyrazol-5-yl)-3-(4-methyl-3-(pyrimidin-2-ylamino)phenyl)urea]","Results, % @ concentration μM",[2],90% @1.0
same,inhibition at 1 µM,B-Raf(V599E) kinase [4],27%
"Cc1ccc(NC(=O)Nc2cc(C(C)(C)C)nn2-c2cccc(CC(=O)NCC(O)CO)c2)cc1Nc1nccc(-c2cccnc2)n1 (stereo not drawn) [Example 517, 1-(3-tert-butyl-1-(3-(2-(2,3-dihydroxypropylamino)-2-oxoethyl)phenyl)-1H-pyrazol-5-yl)-3-(4-methyl-3-(4-(pyridin-3-yl)pyrimidin-2-ylamino)phenyl)urea]",IC50,Abl kinase [9],0.0022 µM
same,IC50,B-Raf(V599E) kinase [4],0.075 µM

# Reference: patent US20090312349A1, “ANTI-INFLAMMATORY MEDICAMENTS” (priority 2004, published 2009)
